In US20240358693A1, “METHODS OF TREATING PAIN” (Aisa Pharma, Inc., priority 2023, published 2024):

Tested on: participants with SSc-RP
Experiment: Scleroderma Health Assessment Questionnaire (SHAQ): disability indices and visual analog scales
Assay type: in vivo, human
How it was run: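 Participants with SSc-RP completed the SHAQ at screening and each in-clinic visit. Standard and alternative disability indices (eight categories, 0–3; standard adjusts for aids/assistance) plus Raynaud's VAS on interference over the past 7 days. Reported as absolute change from baseline to end of each dosing period.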

[1] = Cilnidipine 20 mg, PP Population Part A, SSc patients
[2] = Day 12, Cilnidipine 10 mg (N = 4), Patients with Diagnosis of SSc, PP Population Part A
[3] = Day 12, Cilnidipine 20 mg (N = 4), Patients with Diagnosis of SSc, PP Population Part A
[4] = Day 12, Modified ITT, Part A, dose Cilnidipine 10 mg, Tadalafil 5 mg, or 10 mg + 5 mg
[5] = Day 12, Modified ITT, Part A, dose Cilnidipine 20 mg, or 20 mg + Tadalafil 5 mg
[6] = Day 12, Pooled Cilnidipine 10 mg and Cilnidipine 10 mg + Tadalafil 5 mg (N = 9), PP Population Part A
[7] = Day 12, Pooled Cilnidipine 10 mg and Cilnidipine 10 mg + Tadalafil 5 mg (N = 9), PP Population Part A, Subject 01-110 score excluded
[8] = Day 12, Pooled Cilnidipine 20 mg and Cilnidipine 20 mg + Tadalafil 5 mg (N = 8), PP Population Part A

COCCOC(=O)C1=C(C)NC(C)=C(C(=O)OC/C=C/c2ccccc2)C1c1cccc([N+](=O)[O-])c1 (stereo not drawn) [Cilnidipine, cilnidipine]
SHAQ Visual Analogue Scale - Finger Ulcers, In-Clinic Visit (Day 12), Mean [1]: 0.650
SHAQ Visual Analogue Scale - Finger Ulcers, In-Clinic Visit (Day 12), Median [1]: 0.350
SHAQ Visual Analogue Scale - Intestinal Problems, In-Clinic Visit (Day 12), Mean [1]: 0.850
SHAQ Visual Analogue Scale - Intestinal Problems, In-Clinic Visit (Day 12), Median [1]: 0.650
SHAQ Visual Analogue Scale - Overall Disease Severity, In-Clinic Visit (Day 12), Mean [1]: 1.125
SHAQ Visual Analogue Scale - Overall Disease Severity, In-Clinic Visit (Day 12), Median [1]: 1.300
SHAQ Visual Analogue Scale - Pain, In-Clinic Visit (Day 12), Mean [1]: 1.875
SHAQ Visual Analogue Scale - Pain, In-Clinic Visit (Day 12), Median [1]: 1.400
SHAQ Visual Analogue Scale - Raynaud's, In-Clinic Visit (Day 12), Mean [1]: 1.875
SHAQ Visual Analogue Scale - Raynaud's, In-Clinic Visit (Day 12), Median [1]: 1.250
SHAQ Alternative Disability Index, Change from Baseline, Mean [2]: 0.063
SHAQ Alternative Disability Index, Change from Baseline, Median [2]: 0.000
SHAQ Alternative Disability Index, Percent Change from Baseline, Mean [2]: 15.87%
SHAQ Alternative Disability Index, Percent Change from Baseline, Median [2]: 15.87%
SHAQ Standard Disability Index, Change from Baseline, Mean [2]: 0.000
SHAQ Standard Disability Index, Change from Baseline, Median [2]: 0.000
SHAQ Standard Disability Index, Percent Change from Baseline, Mean [2]: 0.00%
SHAQ Standard Disability Index, Percent Change from Baseline, Median [2]: 0.00%
SHAQ Alternative Disability Index, Change from Baseline, Mean [3]: 0.000
SHAQ Alternative Disability Index, Change from Baseline, Median [3]: −0.063
SHAQ Alternative Disability Index, Percent Change from Baseline, Mean [3]: 5.56%
SHAQ Alternative Disability Index, Percent Change from Baseline, Median [3]: −33.33%
SHAQ Standard Disability Index, Change from Baseline, Mean [3]: −0.063
SHAQ Standard Disability Index, Change from Baseline, Median [3]: −0.063
SHAQ Standard Disability Index, Percent Change from Baseline, Mean [3]: −26.67%
SHAQ Standard Disability Index, Percent Change from Baseline, Median [3]: −33.33%
SHAQ Alternative Disability Index, Change from Baseline, Mean [4]: 0.063
SHAQ Alternative Disability Index, Change from Baseline, Median [4]: 0.000
SHAQ Alternative Disability Index, Percent Change from Baseline, Mean [4]: 15.87%
SHAQ Alternative Disability Index, Percent Change from Baseline, Median [4]: 15.87%
SHAQ Finger Ulcers, Change from Baseline, Mean [4]: −0.425
SHAQ Finger Ulcers, Change from Baseline, Median [4]: −0.350
SHAQ Finger Ulcers, Percent Change from Baseline, Mean [4]: −69.44%
SHAQ Finger Ulcers, Percent Change from Baseline, Median [4]: −69.44%
SHAQ Standard Disability Index, Change from Baseline, Mean [4]: 0.0
SHAQ Standard Disability Index, Change from Baseline, Median [4]: 0.000
SHAQ Standard Disability Index, Percent Change from Baseline, Mean [4]: 0.0%
SHAQ Standard Disability Index, Percent Change from Baseline, Median [4]: 0.00%
SHAQ Visual Analog Scale-Breathing Problems, Change from Baseline, Mean [4]: −0.300
SHAQ Visual Analog Scale-Breathing Problems, Change from Baseline, Median [4]: 0.000
SHAQ Visual Analog Scale-Breathing Problems, Percent Change from Baseline, Mean [4]: −16.00%
SHAQ Visual Analog Scale-Breathing Problems, Percent Change from Baseline, Median [4]: −16.00%
SHAQ Visual Analog Scale-Intestinal Problems, Change from Baseline, Mean [4]: −1.875
SHAQ Visual Analog Scale-Intestinal Problems, Change from Baseline, Median [4]: −1.550
SHAQ Visual Analog Scale-Intestinal Problems, Percent Change from Baseline, Mean [4]: −77.37%
SHAQ Visual Analog Scale-Intestinal Problems, Percent Change from Baseline, Median [4]: −88.00%
SHAQ Visual Analog Scale-Pain, Change from Baseline, Mean [4]: −0.100
SHAQ Visual Analog Scale-Pain, Change from Baseline, Median [4]: 0.000
SHAQ Visual Analog Scale-Pain, Percent Change from Baseline, Mean [4]: −9.88%
SHAQ Visual Analog Scale-Pain, Percent Change from Baseline, Median [4]: 0.00%
SHAQ Visual Analog Scale-Raynaud's, Change from Baseline, Mean [4]: 0.325
SHAQ Visual Analog Scale-Raynaud's, Change from Baseline, Median [4]: 0.350
SHAQ Visual Analog Scale-Raynaud's, Percent Change from Baseline, Mean [4]: 11.36%
SHAQ Visual Analog Scale-Raynaud's, Percent Change from Baseline, Median [4]: −2.27%
SHAQ Alternative Disability Index, Change from Baseline, Mean [5]: −0.083
SHAQ Alternative Disability Index, Change from Baseline, Median [5]: −0.125
SHAQ Alternative Disability Index, Percent Change from Baseline, Mean [5]: −41.67%
SHAQ Alternative Disability Index, Percent Change from Baseline, Median [5]: −41.67%
SHAQ Finger Ulcers, Change from Baseline, Mean [5]: −0.933
SHAQ Finger Ulcers, Change from Baseline, Median [5]: 0.000
SHAQ Finger Ulcers, Percent Change from Baseline, Mean [5]: 35.29%
SHAQ Finger Ulcers, Percent Change from Baseline, Median [5]: 35.29%
SHAQ Standard Disability Index, Change from Baseline, Mean [5]: −0.125
SHAQ Standard Disability Index, Change from Baseline, Median [5]: −0.125
SHAQ Standard Disability Index, Percent Change from Baseline, Mean [5]: −50.00%
SHAQ Standard Disability Index, Percent Change from Baseline, Median [5]: −50.00%
SHAQ Visual Analog Scale-Breathing Problems, Change from Baseline, Mean [5]: −0.833
SHAQ Visual Analog Scale-Breathing Problems, Change from Baseline, Median [5]: −0.800
SHAQ Visual Analog Scale-Breathing Problems, Percent Change from Baseline, Mean [5]: −5.56%
SHAQ Visual Analog Scale-Breathing Problems, Percent Change from Baseline, Median [5]: −66.67%
SHAQ Visual Analog Scale-Intestinal Problems, Change from Baseline, Mean [5]: 0.300
SHAQ Visual Analog Scale-Intestinal Problems, Change from Baseline, Median [5]: 0.300
SHAQ Visual Analog Scale-Intestinal Problems, Percent Change from Baseline, Mean [5]: 35.00%
SHAQ Visual Analog Scale-Intestinal Problems, Percent Change from Baseline, Median [5]: 35.00%
SHAQ Visual Analog Scale-Pain, Change from Baseline, Mean [5]: −1.100
SHAQ Visual Analog Scale-Pain, Change from Baseline, Median [5]: −0.800
SHAQ Visual Analog Scale-Pain, Percent Change from Baseline, Mean [5]: −52.56%
SHAQ Visual Analog Scale-Pain, Percent Change from Baseline, Median [5]: −53.33%
SHAQ Visual Analog Scale-Raynaud's, Change from Baseline, Mean [5]: −1.267
SHAQ Visual Analog Scale-Raynaud's, Change from Baseline, Median [5]: −1.100
SHAQ Visual Analog Scale-Raynaud's, Percent Change from Baseline, Mean [5]: −48.63%
SHAQ Visual Analog Scale-Raynaud's, Percent Change from Baseline, Median [5]: −44.00%
SHAQ Visual Analogue Scale - Finger Ulcers, Change from Baseline, Mean [6]: −0.267
SHAQ Visual Analogue Scale - Finger Ulcers, Change from Baseline, Median [6]: −0.100
SHAQ Visual Analogue Scale - Finger Ulcers, Percent Change from Baseline, Mean [6]: −46.06%
SHAQ Visual Analogue Scale - Finger Ulcers, Percent Change from Baseline, Median [6]: −31.94%
SHAQ Visual Analogue Scale - Intestinal Problems, Change from Baseline, Mean [6]: −1.228
SHAQ Visual Analogue Scale - Intestinal Problems, Change from Baseline, Median [6]: −0.250
SHAQ Visual Analogue Scale - Intestinal Problems, Percent Change from Baseline, Mean [6]: −27.93%
SHAQ Visual Analogue Scale - Intestinal Problems, Percent Change from Baseline, Median [6]: −54.13%
SHAQ Visual Analogue Scale - Overall Disease Severity, Change from Baseline, Mean [6]: −0.606
SHAQ Visual Analogue Scale - Overall Disease Severity, Change from Baseline, Median [6]: −0.700
SHAQ Visual Analogue Scale - Overall Disease Severity, Percent Change from Baseline, Mean [6]: −24.68%
SHAQ Visual Analogue Scale - Overall Disease Severity, Percent Change from Baseline, Median [6]: −30.93%
SHAQ Visual Analogue Scale - Pain, Change from Baseline, Mean [6]: −0.633
SHAQ Visual Analogue Scale - Pain, Change from Baseline, Median [6]: −0.700
SHAQ Visual Analogue Scale - Pain, Percent Change from Baseline, Mean [6]: −20.07%
SHAQ Visual Analogue Scale - Pain, Percent Change from Baseline, Median [6]: −21.87%
SHAQ Visual Analogue Scale - Raynaud's, Change from Baseline, Mean [6]: −0.414
SHAQ Visual Analogue Scale - Raynaud's, Change from Baseline, Median [6]: −0.100
SHAQ Visual Analogue Scale - Raynaud's, Percent Change from Baseline, Mean [6]: −9.97%
SHAQ Visual Analogue Scale - Raynaud's, Percent Change from Baseline, Median [6]: −4.39%
SHAQ Visual Analogue Scale - Breathing Problems, Change from Baseline, Mean [7]: −0.175
SHAQ Visual Analogue Scale - Breathing Problems, Change from Baseline, Median [7]: 0.000
SHAQ Visual Analogue Scale - Breathing Problems, Percent Change from Baseline, Mean [7]: −26.05%
SHAQ Visual Analogue Scale - Breathing Problems, Percent Change from Baseline, Median [7]: −21.33%
SHAQ Visual Analogue Scale - Breathing Problems, Change from Baseline, Mean [8]: 0.225
SHAQ Visual Analogue Scale - Breathing Problems, Change from Baseline, Median [8]: 0.150
SHAQ Visual Analogue Scale - Breathing Problems, Percent Change from Baseline, Mean [8]: 93.65%
SHAQ Visual Analogue Scale - Breathing Problems, Percent Change from Baseline, Median [8]: 31.58%
SHAQ Visual Analogue Scale - Finger Ulcers, Change from Baseline, Mean [8]: −0.950
SHAQ Visual Analogue Scale - Finger Ulcers, Change from Baseline, Median [8]: −0.050
SHAQ Visual Analogue Scale - Finger Ulcers, Percent Change from Baseline, Mean [8]: −15.69%
SHAQ Visual Analogue Scale - Finger Ulcers, Percent Change from Baseline, Median [8]: −48.04%
SHAQ Visual Analogue Scale - Intestinal Problems, Change from Baseline, Mean [8]: 0.200
SHAQ Visual Analogue Scale - Intestinal Problems, Change from Baseline, Median [8]: 0.000
SHAQ Visual Analogue Scale - Intestinal Problems, Percent Change from Baseline, Mean [8]: −6.27%
SHAQ Visual Analogue Scale - Intestinal Problems, Percent Change from Baseline, Median [8]: −29.44%
SHAQ Visual Analogue Scale - Overall Disease Severity, Change from Baseline, Mean [8]: −1.425
SHAQ Visual Analogue Scale - Overall Disease Severity, Change from Baseline, Median [8]: −1.550
SHAQ Visual Analogue Scale - Overall Disease Severity, Percent Change from Baseline, Mean [8]: −47.98%
SHAQ Visual Analogue Scale - Overall Disease Severity, Percent Change from Baseline, Median [8]: −48.23%
SHAQ Visual Analogue Scale - Pain, Change from Baseline, Mean [8]: −0.500
